Experiments:
alkaline phosphatase = experiment: Control: alkaline phosphatase activity in solution; format: biochemical
EphA and EphB receptors = experiment: ELISA, ephrin-A5 AP / ephrin-B2 AP binding to immobilized EphA and EphB receptor Fc fusion proteins
Experimental: FIGS. 3A and 3B. A. Ephrin-A5 AP binding to immobilized EphA receptor Fc fusion proteins and ephrin-B2 AP binding to immobilized EphB receptor Fc fusion proteins were measured in the presence of the indicated concentrations of compounds 1 and 2. […] Error bars indicate standard error from 3 measurements. B. IC50 values for inhibition of EphA4 AP and EphA2 AP binding to the indicated immobilized ephrins by compounds 1 and 2.
ELISA Assays and K, Determination—Protein A-coated wells (Pierce Biotecnology, Rockford, Ill.) were used to immobilize ephrin Fc fusion proteins (R&D Systems, Minneapolis, Minn.). Compounds at different concentrations were incubated with EphA4 AP (Cheng and Flanagan, (1994) Cell 79(1), 157-168) or EphA2 AP (Koolpe et al. (2002) J Biol Chem 277(49), 46974-46979) for 3 hours. Alternatively, Eph receptor Fc fusion proteins were immobilized on protein A-coated wells and ephrin-A5 AP (Menzel et al. (2001) Developmental Biology 230(1), 74-88) or ephrin-B2 AP (GeneHunter, Nashville, Tenn.) were added with the compounds. The amount of bound AP-fusion protein was quantified using pNPP as the substrate. Alkaline phosphatase activity from wells with Fc only was subtracted as background. […]

Structure (SMILES) | inhibition of alkaline phosphatase activity (control) (alkaline phosphatase) | selectivity of inhibition of ephrin binding among EphA and EphB receptors (EphA and EphB receptors)
Cc1ccc(C)n1-c1ccc(C(=O)O)c(O)c1 [compound 1, 4-(2,5-dimethyl-pyrrol-1-yl)-2-hydroxy-benzoic acid] | does not inhibit | efficiently inhibited ephrin binding only to EphA4 and EphA2
Cc1ccc(C)n1-c1ccc(O)c(C(=O)O)c1 [compound 2, 5-(2,5 dimethyl-pyrrol-1-yl)-2-hydroxy-benzoic acid] | – | efficiently inhibited ephrin binding only to EphA4 and EphA2

Reference: US20100256214A1, “EPH RECEPTOR LIGANDS AND METHODS OF USE” (Burnham Institute for Medical Research, priority 2009, published 2010)
